The values below come from US9822147B2, “Methods of treating ophthalmic diseases using NPR-B agonists” (priority 2009, dated 2017).

pEC50: −log10 of the molar value. Numbered stars: 1 amine (or outer) side, 2 acyl side, 3 side chain; on linkers, the order of the positions; unused ones are H or OH. Square brackets hold non-standard residues; d marks the D form. Peptide text beside a SMILES is read from it. * marks the point of attachment. Pro(4R-NH2) = N[C@H]1CN[C@H](C(=O)O)C1; X2 = O=C([C@H]1CCCN([*:1])C1)[*:2]; dDap(Me2) = CN(C)C[C@@H](N)C(=O)O; Hyp = O=C(O)[C@@H]1C[C@@H](O)CN1; NHcycloheptyl = C1CCCC(N*)CC1; NMeL = CN[C@@H](CC(C)C)C(=O)O; Octanoyl = CCCCCCCC(=O)*; Api = NC1(C(=O)O)CCNCC1

The subject of one test is rabbit eyes. The test is described as follows: Efficacy in the rabbit: intraocular pressure (IOP) after a single topical ocular drop. The class given is in vivo. Conditions: dose 300 ug topical ocular, single 30 μL drop, up to 4 hr post dose, 1% as suspension (+) or solution (++) per mark on label. On the procedure: A single 30 μL drop of a test item formulation was administered to rabbit eyes (n=8 to 10).
Intraocular pressure (IOP) was assessed in each eye at 0 hr, just prior to dosing, and again hourly for up to 4 hr post dose. The efficacy of a given formulation was determined based on the difference between the pretreatment TOP readings at 0 hr and the post treatment readings. A maximum percent reduction in IOP greater than 15% was noted by the “+” symbol. A maximum IOP reduction of less than 15% was assigned the “−” symbol.

For another test, the target named is T1, NPR-B (Homo sapiens, UniProt P20594).
T1 construct: a functional assay using endogenously NPR-B expressing GTM-3 cells; endogenous in cells; host or cells: GTM-3 (human glaucoma trabecular meshwork cells)
T1 sequence (P20594 23-1047): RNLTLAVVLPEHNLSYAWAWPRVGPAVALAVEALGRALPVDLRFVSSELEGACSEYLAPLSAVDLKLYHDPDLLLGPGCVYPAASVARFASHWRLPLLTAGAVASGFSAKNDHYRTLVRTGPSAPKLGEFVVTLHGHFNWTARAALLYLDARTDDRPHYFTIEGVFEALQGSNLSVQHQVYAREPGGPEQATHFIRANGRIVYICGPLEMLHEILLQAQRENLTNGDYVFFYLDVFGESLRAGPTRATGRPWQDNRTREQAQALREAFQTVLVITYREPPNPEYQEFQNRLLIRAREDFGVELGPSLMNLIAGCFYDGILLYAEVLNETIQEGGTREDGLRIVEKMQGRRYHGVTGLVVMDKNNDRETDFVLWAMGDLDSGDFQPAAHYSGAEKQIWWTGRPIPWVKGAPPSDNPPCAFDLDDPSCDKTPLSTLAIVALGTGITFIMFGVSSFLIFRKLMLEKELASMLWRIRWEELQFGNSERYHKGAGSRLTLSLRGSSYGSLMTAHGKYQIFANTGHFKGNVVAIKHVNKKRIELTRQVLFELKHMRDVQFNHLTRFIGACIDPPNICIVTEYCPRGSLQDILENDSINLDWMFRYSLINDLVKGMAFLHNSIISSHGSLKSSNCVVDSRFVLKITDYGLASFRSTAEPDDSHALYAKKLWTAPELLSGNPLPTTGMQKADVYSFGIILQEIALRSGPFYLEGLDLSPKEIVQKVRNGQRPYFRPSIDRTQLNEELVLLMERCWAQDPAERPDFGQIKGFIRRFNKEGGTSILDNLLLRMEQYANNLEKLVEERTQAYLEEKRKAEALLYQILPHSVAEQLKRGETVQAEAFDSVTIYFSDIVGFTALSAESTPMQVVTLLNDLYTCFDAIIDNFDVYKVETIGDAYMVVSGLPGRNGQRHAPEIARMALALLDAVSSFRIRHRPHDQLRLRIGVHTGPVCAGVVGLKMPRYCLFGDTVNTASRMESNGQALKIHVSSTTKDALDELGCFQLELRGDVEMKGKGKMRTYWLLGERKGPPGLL
The experiment in a line: NPR-B induced production of cyclic GMP in human glaucoma trabecular meshwork cells (GTM-3). The class given is cell-based. As to conditions: group by EC50 and Emax (CNP = 100%); Table 4; read-out: Activity (group), NPR-B activation assayed with GTM-3 cells.

For the compound `CCCCCCCC(=O)N1CCC[C@H](C(=O)N[C@@H](Cc2ccccc2)C(=O)N[C@H](CC(C)C)C(=O)N[C@@H](CC(C)C)C(=O)N2C[C@H](N)C[C@H]2C(=O)N(C)[C@@H](CC(C)C)C(=O)N[C@@H](CC(=O)O)C(=O)N[C@@H](CCCNC(=N)N)C(=O)N[C@H](C(N)=O)[C@@H](C)CC)C1` [JAL-1295, Occ-Sni-Phe-leu-Leu-Tap-Nml-Asp-Arg-Ile-NH2] (Octanoyl-[X2]F[dL]L[Pro(4R-NH2)][NMeL]DRI-NH2), the “RIOP, maximum percent reduction in IOP” value with rabbit eyes is “+ (+ IOP reduction >15%)”. The pEC50 on NPR-B was more than 6.00. For `CCCCCCCC(=O)N1CCC[C@H](C(=O)N[C@@H](Cc2ccccc2)C(=O)N[C@H](CN(C)C)C(=O)N[C@@H](CC(C)C)C(=O)N2C[C@H](O)C[C@H]2C(=O)N(C)[C@@H](CC(C)C)C(=O)N[C@@H](CC(=O)O)C(=O)N[C@@H](CCCNC(=N)N)C(=O)N[C@H](C(N)=O)[C@@H](C)CC)C1` [JAL-1287, Occ-Sni-Phe-dap(Me2)-Leu-Hyp-Nml-Asp-Arg-Ile-NH2] (Octanoyl-[X2]F[dDap(Me2)]L[Hyp][NMeL]DRI-NH2), in that order: “+ (+ IOP reduction >15%)” and more than 6.00. For `CCCCCCCC(=O)N[C@H](C)C(=O)N[C@@H](Cc1ccccc1)C(=O)N[C@H](CCCCN)C(=O)N[C@@H](CC(C)C)C(=O)N1C[C@H](O)C[C@H]1C(=O)N(C)[C@@H](CC(C)C)C(=O)N[C@@H](CC(=O)O)C(=O)N[C@@H](CCCNC(=N)N)C(=O)N[C@H](C(N)=O)[C@@H](C)CC` [JAL-1060, Occ-ala-Phe-lys-Leu-Hyp-Nml-Asp-Arg-Ile-NH2] (HELM PEPTIDE1{[CCCCCCCC(=O)[*:2]].[dA].F.[dK].L.[Hyp].[meL].D.R.I.[am]}$$$$V2.0), in that order: “+ (+ IOP reduction >15%)” and more than 6.00.

On to `CCCCCCCC(=O)N[C@H](C)C(=O)N(C)[C@@H](Cc1ccccc1)C(=O)N[C@H](CCCNC(=N)N)C(=O)N[C@@H](CC(C)C)C(=O)N1C[C@H](O)C[C@H]1C(=O)N(C)[C@@H](CC(C)C)C(=O)N[C@@H](CC(=O)O)C(=O)N[C@@H](CCCNC(=N)N)C(=O)N[C@H](C(N)=O)[C@@H](C)CC` [JAL-1085, Occ-ala-Nmf-arg-Leu-Hyp-Nml-Asp-Arg-Ile-NH2] (HELM PEPTIDE1{[CCCCCCCC(=O)[*:2]].[dA].[meF].[dR].L.[Hyp].[meL].D.R.I.[am]}$$$$V2.0), for which the “RIOP, maximum percent reduction in IOP” value in the test on rabbit eyes was “+ (+ IOP reduction >15%)”. Besides, on NPR-B, the pEC50 is more than 6.00. For `CCCCCCCC(=O)N1CCC[C@H](C(=O)N[C@@H](Cc2ccccc2)C(=O)N[C@H](CC(C)C)C(=O)N[C@@H](CC(C)C)C(=O)N2C[C@H](O)C[C@H]2C(=O)N(C)[C@@H](CC(C)C)C(=O)N[C@@H](CC(=O)O)C(=O)N2CCC[C@H]2C(=O)NC2CCCCCC2)C1` [JAL-1512_02, Occ-Sni-Phe-leu-Leu-Hyp-Nml-Asp-Pro-Che] (Octanoyl-[X2]F[dL]L[Hyp][NMeL]DP-NHcycloheptyl), in that order: “+ (+ IOP reduction >15%)” and more than 6.00. For `CCCCCCCC(=O)N1CCC[C@H](C(=O)N[C@@H](Cc2ccccc2)C(=O)N[C@H](CC(C)C)C(=O)N[C@@H](CC(C)C)C(=O)N2C[C@H](O)C[C@H]2C(=O)N(C)[C@@H](CC(C)C)C(=O)N[C@@H](CC(=O)O)C(=O)N[C@@H](CCCNC(=N)N)C(=O)N[C@H](C(N)=O)[C@@H](C)CC)C1` [JAL-1041, Occ-Sni-Phe-leu-Leu-Hyp-Nml-Asp-Arg-Ile-NH2] (HELM PEPTIDE1{[CCCCCCCC(=O)[*:2]].[O=C([C@H]1CCCN([*:1])C1)[*:2]].F.[dL].L.[Hyp].[meL].D.R.I.[am]}$$$$V2.0), in that order: “+ (+ IOP reduction >15%)” and more than 6.00.

Take `CCCCCCCC(=O)N1CCC[C@H](C(=O)N[C@@H](Cc2ccccc2)C(=O)N[C@H](CC(C)C)C(=O)N[C@@H](CC(C)C)C(=O)N2C[C@H](O)C[C@H]2C(=O)N(C)[C@@H](CC(C)C)C(=O)N[C@H](C(=O)N[C@@H](CCCNC(=N)N)C(=O)NC2CCCCCC2)C(C)C)C1` [JAL-1730, Occ-Sni-Phe-leu-Leu-Hyp-Nml-Val-Arg-Che] (Octanoyl-[X2]F[dL]L[Hyp][NMeL]VR-NHcycloheptyl): the “RIOP, maximum percent reduction in IOP” value in the test on rabbit eyes is listed as “+ (+ IOP reduction >15%)”. On NPR-B, the pEC50 was more than 6.00. Consider `CCCCCCCC(=O)N1CCC[C@H](C(=O)N[C@@H](Cc2ccccc2)C(=O)NC2(C(=O)N[C@@H](CC(C)C)C(=O)N3C[C@H](O)C[C@H]3C(=O)N(C)[C@@H](CC(C)C)C(=O)N[C@@H](CC(=O)O)C(=O)N[C@@H](CCCNC(=N)N)C(=O)N[C@H](C(N)=O)[C@@H](C)CC)CCNCC2)C1` [JAL-1555, Occ-Sni-Phe-Apc-Leu-Hyp-Nml-Asp-Arg-Ile-NH2] (Octanoyl-[X2]F[Api]L[Hyp][NMeL]DRI-NH2), for which the “RIOP, maximum percent reduction in IOP” value in the test on rabbit eyes was “+ (+ IOP reduction >15%)”. Further, the pEC50 at NPR-B was more than 6.00. On to `CCCCCCCC(=O)N[C@H](C)C(=O)N[C@@H](Cc1ccccc1)C(=O)N[C@H](CCCNC(=N)N)C(=O)N[C@@H](CC(C)C)C(=O)N1C[C@H](O)C[C@H]1C(=O)N(C)[C@@H](CC(C)C)C(=O)N[C@@H](CC(=O)O)C(=O)N[C@@H](CCCNC(=N)N)C(=O)N[C@H](C(N)=O)[C@@H](C)CC` [JAL-1086, Occ-ala-Phe-arg-Leu-Hyp-Nml-Asp-Arg-Ile-NH2] (HELM PEPTIDE1{[CCCCCCCC(=O)[*:2]].[dA].F.[dR].L.[Hyp].[meL].D.R.I.[am]}$$$$V2.0), for which the “RIOP, maximum percent reduction in IOP” value in the test with rabbit eyes is listed as “+ (+ IOP reduction >15%)”. Besides, the pEC50 on NPR-B is more than 6.00. For `CCCCCCCC(=O)N1CCC[C@H](C(=O)N[C@@H](Cc2ccccc2)C(=O)N[C@H](CC(C)C)C(=O)N[C@@H](CC(C)C)C(=O)N2C[C@H](N)C[C@H]2C(=O)N(C)[C@@H](CC(C)C)C(=O)N[C@H](C(=O)N[C@@H](CCCNC(=N)N)C(=O)NC2CCCCCC2)C(C)C)C1` [JAL-1729, Occ-Sni-Phe-leu-Leu-Tap-Nml-Val-Arg-Che] (Octanoyl-[X2]F[dL]L[Pro(4R-NH2)][NMeL]VR-NHcycloheptyl), in that order: “+ (+ IOP reduction >15%)” and more than 6.00. For `CCCCCCCC(=O)N1CCC[C@H](C(=O)N[C@@H](Cc2ccccc2)C(=O)N[C@H](CC(C)C)C(=O)N[C@@H](CC(C)C)C(=O)N2C[C@H](N)C[C@H]2C(=O)N(C)[C@@H](CC(C)C)C(=O)N[C@H](C(=O)N2CCC[C@H]2C(=O)NC2CCCCCC2)C(C)C)C1` [JAL-1654, Occ-Sni-Phe-leu-Leu-Tap-Nml-Val-Pro-Che] (Octanoyl-[X2]F[dL]L[Pro(4R-NH2)][NMeL]VP-NHcycloheptyl), in that order: “− (− IOP reduction <15%)” and more than 6.00. For the compound `CCCCCCCCN1CCC[C@H](C(=O)N[C@@H](Cc2ccccc2)C(=O)N[C@H](CN(C)C)C(=O)N[C@@H](CC(C)C)C(=O)N2C[C@H](O)C[C@H]2C(=O)N(C)[C@@H](CC(C)C)C(=O)N[C@@H](CC(=O)O)C(=O)N[C@@H](CCCNC(=N)N)C(=O)N[C@H](C(N)=O)[C@@H](C)CC)C1` [JAL-1429, Oct-Sni-Phe-dap(Me2)-Leu-Hyp-Nml-Asp-Arg-Ile-NH2] (HELM PEPTIDE1{[CCCCCCCCN1CCC[C@H](C(=O)[*:2])C1].F.[CN(C)C[C@@H](N[*:1])C(=O)[*:2]].L.[Hyp].[meL].D.R.I.[am]}$$$$V2.0), the “RIOP, maximum percent reduction in IOP” value in the test on rabbit eyes is on record as “+ (+ IOP reduction >15%)”. In the case of `CCCCCCCC(=O)N[C@H](C)C(=O)N[C@@H](Cc1ccccc1)C(=O)N[C@H](CCCNC(=N)N)C(=O)N[C@@H](CC(C)C)C(=O)N1C[C@H](O)C[C@H]1C(=O)N[C@@H](CC(C)C)C(=O)N[C@@H](CC(=O)O)C(=O)N[C@@H](CCCNC(=N)N)C(=O)N[C@H](C(N)=O)[C@@H](C)CC` [JAL-1047, Occ-ala-Phe-arg-Leu-Hyp-Leu-Asp-Arg-Ile-NH2] (HELM PEPTIDE1{[CCCCCCCC(=O)[*:2]].[dA].F.[dR].L.[Hyp].L.D.R.I.[am]}$$$$V2.0), the “RIOP, maximum percent reduction in IOP” value with rabbit eyes is “+ (+ IOP reduction >15%)”. Also, at NPR-B, the pEC50 is more than 6.00.
